According to patent US9249125B2, “Pyrazole derivatives as p38 MAP inhibitors” (RESPIVERT LIMITED, priority 2012, dated 2016):

Assays:
p38 MAPKα = p38 MAPKα (Homo sapiens (Human), UniProt Q16539); experiment: p38 MAPKα enzyme inhibition (FRET, Z-LYTE); assay type: biochemical
cSrc = cSrc (Homo sapiens (Human), UniProt P12931); experiment: c-Src enzyme inhibition (FRET, Z-LYTE); assay type: biochemical
How it was run: (§1)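 Z-LYTE FRET kinase assay: enzyme (3000 or 2000 ng/mL stock, respectively) preincubated 2 h at RT with compound (4–0.004 μg/mL stocks), then FRET peptide plus ATP (800 μM stock for c-Src, 60 μM for Syk) added for 1 h. Protease development 1 h; phosphorylation from coumarin/fluorescein emission ratio.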

Syk = Syk (Homo sapiens (Human), UniProt P43405); experiment: Syk enzyme inhibition (FRET, Z-LYTE); assay type: biochemical
How it was run: as §1

GSK3α = GSK3α (Homo sapiens (Human), UniProt P49840); experiment: GSK 3α enzyme inhibition (FRET, Z-LYTE); assay type: biochemical
How it was run: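 Phosphorylation was read as the donor (coumarin) to acceptor (fluorescein) ratio after a 1 hr protease step destroying non-phosphorylated peptide. Before this, compound (4–0.004 μg/mL stocks) sat 2 hr at RT with GSK3α (500 ng/mL stock), followed by 1 hr kinase reaction with 8 μM peptide and 40 μM ATP stocks.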

[1] = tested on: LPS-induced TNFα release in d-U937 cells; experiment: LPS-induced TNFα release in d-U937 cells; assay type: cell-based; conditions: Homo sapiens, dU937, relative to 10 μg/mL BIRB796, read-out: LPS Induced Release of Cytokine in d-937 Cells TNFα REC50
How it was run: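 Human monocytic U937 cells were differentiated to macrophage-type cells with PMA (100 ng/mL) for 48 to 72 hr, pre-treated with test compound for 2 hr, then stimulated 4 hr with E. coli O111:B4 LPS (0.1 μg/mL). Supernatant TNFα and IL-8 were measured by sandwich ELISA; REC50 came from concentration-response curves.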

[2] = tested on: LPS-induced IL-8 release in d-U937 cells; experiment: LPS-induced IL-8 release in d-U937 cells; assay type: cell-based; conditions: Homo sapiens, dU937, read-out: LPS Induced Release of Cytokine in d-937 Cells IL-8 IC50
How it was run: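 Sandwich ELISA of culture supernatant gives TNFα and IL-8 levels after a 4 hr challenge with LPS (0.1 μg/mL, E. coli O111:B4). Before stimulation, macrophage-like U937 cells, obtained by 48–72 hr in PMA at 100 ng/mL, sit with compound for 2 hr. Relative EC50 is derived from concentration-response data.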

[3] = tested on: Poly I:C-induced ICAM-1 expression in BEAS2B cells; experiment: Poly I:C-induced ICAM-1 expression in BEAS2B cells; assay type: cell-based; conditions: Homo sapiens, BEAS-2B, read-out: Poly IC induced ICAM1 in BEAS2B IC50
How it was run: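 Cell-based ELISA read at 450 nm minus 655 nm, divided by crystal violet OD595 to normalize for cell number, gave ICAM-1 levels. Readout was taken 18 hr after poly I:C (1 μg/mL, Oligofectamine) transfection of human bronchial BEAS2B cells pretreated 2 hr with test compound.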

d-U937 cells = experiment: Cell viability: MTT assay; assay type: cell-based, human; conditions: 1 μg/mL
How it was run: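 MTT read-out (1 h, absorbance 550 nm) on d-U937 cells after pre-incubation with 1 or 10 μg/mL compound under two regimes: 4 h, 5% FCS, or 24 h, 10% FCS RPMI1640. Values are percent loss of viability relative to vehicle (0.5% DMSO), so increases are reported as negative.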

Sequence of cSrc (P12931 whole entry, looked up): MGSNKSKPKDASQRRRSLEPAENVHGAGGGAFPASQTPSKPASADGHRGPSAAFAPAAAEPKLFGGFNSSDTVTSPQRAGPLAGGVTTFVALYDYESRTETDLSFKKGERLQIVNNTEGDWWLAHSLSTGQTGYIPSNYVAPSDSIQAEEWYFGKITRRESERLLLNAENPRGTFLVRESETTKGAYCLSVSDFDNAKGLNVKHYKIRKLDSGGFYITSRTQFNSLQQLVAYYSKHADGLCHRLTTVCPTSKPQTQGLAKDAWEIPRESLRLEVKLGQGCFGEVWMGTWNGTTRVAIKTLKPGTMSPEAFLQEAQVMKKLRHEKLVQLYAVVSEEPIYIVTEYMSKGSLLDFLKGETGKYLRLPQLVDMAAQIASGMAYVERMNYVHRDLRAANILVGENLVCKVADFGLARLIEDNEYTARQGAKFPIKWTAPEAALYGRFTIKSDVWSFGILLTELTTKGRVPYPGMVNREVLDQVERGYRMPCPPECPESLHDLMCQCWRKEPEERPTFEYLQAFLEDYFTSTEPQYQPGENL
Sequence of p38 MAPKα (Q16539 whole entry): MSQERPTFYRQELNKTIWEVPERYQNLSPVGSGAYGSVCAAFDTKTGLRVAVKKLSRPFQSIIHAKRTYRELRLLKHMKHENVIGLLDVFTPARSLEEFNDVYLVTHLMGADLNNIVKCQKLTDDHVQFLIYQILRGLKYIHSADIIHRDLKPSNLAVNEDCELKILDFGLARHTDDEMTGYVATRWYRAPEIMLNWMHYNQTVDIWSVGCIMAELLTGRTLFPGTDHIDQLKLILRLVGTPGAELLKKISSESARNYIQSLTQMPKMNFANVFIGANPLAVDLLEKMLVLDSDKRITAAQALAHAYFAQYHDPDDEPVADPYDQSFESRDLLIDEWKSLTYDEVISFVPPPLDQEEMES
Sequence of GSK3α (P49840 whole entry): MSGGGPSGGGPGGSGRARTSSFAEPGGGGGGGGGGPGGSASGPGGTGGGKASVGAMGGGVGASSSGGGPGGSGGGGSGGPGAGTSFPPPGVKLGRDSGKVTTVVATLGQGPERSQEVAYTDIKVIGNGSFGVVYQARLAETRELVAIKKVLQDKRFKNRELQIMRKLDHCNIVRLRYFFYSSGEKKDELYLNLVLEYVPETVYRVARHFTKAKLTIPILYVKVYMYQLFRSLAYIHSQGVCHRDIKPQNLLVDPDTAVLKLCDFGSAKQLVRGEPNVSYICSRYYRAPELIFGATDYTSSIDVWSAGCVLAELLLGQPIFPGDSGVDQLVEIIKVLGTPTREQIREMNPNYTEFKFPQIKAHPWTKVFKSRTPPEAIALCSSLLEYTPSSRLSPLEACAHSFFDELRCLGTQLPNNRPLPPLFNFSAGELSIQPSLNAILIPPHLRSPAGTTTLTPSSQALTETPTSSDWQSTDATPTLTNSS

IC50 (p38 MAPKα)	IC50 (cSrc)	IC50 (Syk)	IC50 (GSK3α)	EC50 [1]	IC50 [2]	SMILES	IC50 [3]	MTT Assay Cell viability at time point in d-U937 cells 4 h (d-U937 cells)	MTT Assay Cell viability at time point in d-U937 cells 24 h (d-U937 cells)
70 nM	4 nM	18 nM	> 1420 nM	5.3 nM	16.6 nM	CC(C)(C)c1cc(NC(=O)Nc2ccc(Oc3ccnc(Nc4ccc5[nH]ccc5c4)n3)c3ccccc23)n(-c2cccc(CN3CCCC3=O)c2)n1 [Example 48, 1-(4-((2-((1H-indol-5-yl)amino)pyrimidin-4-yl)oxy)naphthalen-1-yl)-3-(3-(tert-butyl)-1-(3-((2-oxopyrrolidin-1-yl)methyl)phenyl)-1H-pyrazol-5-yl)urea]	6.9 nM	−ve (−ve and +ve indicate that the value is below and above respectively, the no significant effect threshold, defined as 30% inhibition at 1 μg/mL at the time point indicated.)	−ve (−ve and +ve indicate that the value is below and above respectively, the no significant effect threshold, defined as 30% inhibition at 1 μg/mL at the time point indicated.)
29 nM	5 nM	12 nM	1350 nM	2.5 nM	9.7 nM	CC(C)(C)c1cc(NC(=O)Nc2ccc(Oc3ccnc(Nc4ccc5[nH]ncc5c4)n3)c3ccccc23)n(-c2cccc(CN3CCCC3=O)c2)n1 [Example 49, 1-(4-((2-((1H-indazol-5-yl)amino)pyrimidin-4-yl)oxy)naphthalen-1-yl)-3-(3-(tert-butyl)-1-(3-((2-oxopyrrolidin-1-yl)methyl)phenyl)-1H-pyrazol-5-yl)urea]	2.2 nM	−ve (−ve and +ve indicate that the value is below and above respectively, the no significant effect threshold, defined as 30% inhibition at 1 μg/mL at the time point indicated.)	−ve (−ve and +ve indicate that the value is below and above respectively, the no significant effect threshold, defined as 30% inhibition at 1 μg/mL at the time point indicated.)
31 nM	< 1 nM	2 nM	1170 nM	16.4 nM	34 nM	CC(C)(C)c1cc(NC(=O)Nc2ccc(Oc3ccnc(Nc4ccc5c(c4)NC(=O)C5)n3)c3ccccc23)n(-c2cccc(OCCN3CCOCC3)c2)n1 [Example 50, 1-(3-(tert-butyl)-1-(3-(2-morpholinoethoxy)phenyl)-1H-pyrazol-5-yl)-3-(4-((2-((2-oxoindolin-6-yl)amino)pyrimidin-4-yl)oxy)naphthalen-1-yl)urea]	2.7 nM	−ve (−ve and +ve indicate that the value is below and above respectively, the no significant effect threshold, defined as 30% inhibition at 1 μg/mL at the time point indicated.)	−ve (−ve and +ve indicate that the value is below and above respectively, the no significant effect threshold, defined as 30% inhibition at 1 μg/mL at the time point indicated.)
8 nM	4 nM	3 nM	11300 nM	49.1 nM	173 nM	CC(C)c1cc(NC(=O)Nc2ccc(Oc3ccnc(Nc4ccc5[nH]ncc5c4)n3)c3ccccc23)n(-c2cccc(OCCN3CCOCC3)c2)n1 [Example 53, 1-(4-((2-((1H-indazol-5-yl)amino)pyrimidin-4-yl)oxy)naphthalen-1-yl)-3-(3-isopropyl-1-(3-(2-morpholinoethoxy)phenyl)-1H-pyrazol-5-yl)urea]	38.5 nM	−ve (−ve and +ve indicate that the value is below and above respectively, the no significant effect threshold, defined as 30% inhibition at 1 μg/mL at the time point indicated.)	−ve (−ve and +ve indicate that the value is below and above respectively, the no significant effect threshold, defined as 30% inhibition at 1 μg/mL at the time point indicated.)
7 nM	< 1 nM	< 1 nM	> 13500 nM	3.9 nM	43.4 nM	Cc1cc(Nc2nccc(Oc3ccc(NC(=O)Nc4cc(C(C)C)nn4-c4cccc(OCCN5CCOCC5)c4)c4ccccc34)n2)cc2cn[nH]c12 [Example 55, 1-(3-isopropyl-1-(3-(2-morpholinoethoxy)phenyl)-1H-pyrazol-5-yl)-3-(4-((2-((7-methyl-1H-indazol-5-yl)amino)pyrimidin-4-yl)oxy)naphthalen-1-yl)urea]	50.8 nM	−ve (−ve and +ve indicate that the value is below and above respectively, the no significant effect threshold, defined as 30% inhibition at 1 μg/mL at the time point indicated.)	−ve (−ve and +ve indicate that the value is below and above respectively, the no significant effect threshold, defined as 30% inhibition at 1 μg/mL at the time point indicated.)
74 nM	19 nM	15 nM	4700 nM	1.1 nM	2.3 nM	COCCOc1cccc(-n2nc(C(C)(C)C)cc2NC(=O)Nc2ccc(Oc3ccnc(Nc4cc(C)c5[nH]ncc5c4)c3)c3ccccc23)c1 [Example 57]	4.4 nM	−ve (−ve and +ve indicate that the value is below and above respectively, the no significant effect threshold, defined as 30% inhibition at 1 μg/mL at the time point indicated.)	−ve (−ve and +ve indicate that the value is below and above respectively, the no significant effect threshold, defined as 30% inhibition at 1 μg/mL at the time point indicated.)
98 nM	23 nM	28 nM	> 9230 nM	12.6 nM	16.8 nM	CC(C)(C)c1cc(NC(=O)Nc2ccc(Oc3ccnc(Nc4ccc5c(c4)CCC5)n3)c3ccccc23)n(-c2ccc(OCCN3CCOCC3)cc2)n1 [Example 59, 1-(3-(tert-butyl)-1-(4-(2-morpholinoethoxy)phenyl)-1H-pyrazol-5-yl)-3-(4-((2-((2,3-dihydro-1H-inden-5-yl)amino)pyrimidin-4-yl)oxy)naphthalen-1-yl)urea]	0.1 nM	−ve (−ve and +ve indicate that the value is below and above respectively, the no significant effect threshold, defined as 30% inhibition at 1 μg/mL at the time point indicated.)	−ve (−ve and +ve indicate that the value is below and above respectively, the no significant effect threshold, defined as 30% inhibition at 1 μg/mL at the time point indicated.)
94 nM	2 nM	13 nM	686 nM	1.8 nM	10.3 nM	CC(C)(C)c1cc(NC(=O)Nc2ccc(Oc3ccnc(Nc4ccc5c(c4)COC5)n3)c3ccccc23)n(-c2ccc(OCCN3CCOCC3)cc2)n1 [Example 60, 1-(3-(tert-butyl)-1-(4-(2-morpholinoethoxy)phenyl)-1H-pyrazol-5-yl)-3-(4-((2-((1,3-dihydroisobenzofuran-5-yl)amino)pyrimidin-4-yl)oxy)naphthalen-1-yl)urea]	1.4 nM	−ve (−ve and +ve indicate that the value is below and above respectively, the no significant effect threshold, defined as 30% inhibition at 1 μg/mL at the time point indicated.)	−ve (−ve and +ve indicate that the value is below and above respectively, the no significant effect threshold, defined as 30% inhibition at 1 μg/mL at the time point indicated.)
14 nM	< 1 nM	7 nM	1540 nM	18.7 nM	84.7 nM	CC(C)c1cc(NC(=O)Nc2ccc(Oc3ccnc(Nc4ccc5c(c4)NC(=O)C5)n3)c3ccccc23)n(-c2ccc(OCCN3CCOCC3)cc2)n1 [Example 61, 1-(3-isopropyl-1-(4-(2-morpholinoethoxy)phenyl)-1H-pyrazol-5-yl)-3-(4-((2-((2-oxoindolin-6-yl)amino)pyrimidin-4-yl)oxy)naphthalen-1-yl)urea]	> 135 nM	−ve (−ve and +ve indicate that the value is below and above respectively, the no significant effect threshold, defined as 30% inhibition at 1 μg/mL at the time point indicated.)	−ve (−ve and +ve indicate that the value is below and above respectively, the no significant effect threshold, defined as 30% inhibition at 1 μg/mL at the time point indicated.)
